{"source": "patent US20040029965A1", "about": "“Formulations for reducing or eliminating toxicity of enviromental hormones containing ursodeoxycholic acid” (priority 2000, published 2004)", "assay_type_in_all_cases": "in vivo", "key": {"C57B1/6J mice [1]": {"system": "C57B1/6J mice", "assay": "Water uptake of mice after a single subcutaneous injection of TCDD", "design": "unit not given here", "experimental": "(§1) Male C57B1/6J mice of 5 weeks old having the average weight of 18-22 g which had been bred in CRJ (Charles River in Japan) were purchased and used in this example as experimental animals. Those mice were acclimated under the constant breeding condition, i.e. the temperature of 24±1° C., the humidity of 60±10% and the light and darkness cycle of 12 hours, for one week and thereafter, utilized in the experiment.\n(§2) The Experimental animals were supplied with Purina powdered feed (purchased from Hae Eun Trade) and supplied with water ad libitum. All the animals were weighed twice a week during experimentation.\n(§3) 2,3,7,8-tetrachlorodibenzo-p-dioxin (TCDD) dissolved in toluene (purity of 95% or more as a result of gas chromatography analysis), manufactured by Chem. Services Inc. in USA, was volatilized with nitrogen to obtain powder. The obtained powder was dissolved in a mixed solvent containing acetone and corn oil with a volume ratio of 1:6. The resulting solution each containing 110, 27.5 and 6.9 μg/kg of TCDD was subcutaneously injected to mice at a volume of 5 ml per body weight. […] The mice were supplied with the feed from 10 days before (pre-administration) to 60 days after administration of TCDD (post-administration).\n(§4) The results are expressed as Mean±Standard Deviation values. For statistical analysis of the body weight, feed and water uptake, biochemical findings, hematological findings and the weight of organ in an acute toxicity test, verification was performed by one way analysis of variance (ANOVA) in case of equal distribution. In case significance was recognized in ANOVA, the Student's t-test was performed in the levels of p<0.05 and p<0.01."}, "C57B1/6J mice [2]": {"system": "C57B1/6J mice", "assay": "Changes in body weight of mice after a single subcutaneous injection of TCDD", "conditions": "for Weight (body weight): at sacrifice", "experimental": "as §1, §2, §3, §4"}, "C57B1/6J mice [3]": {"system": "C57B1/6J mice", "assay": "Effect of UDCA on death (death rate, death time) of mice by a single subcutaneous injection of TCDD", "experimental": "as §1, §2, §3, §4"}}, "data": [{"smiles": "Clc1cc2c(cc1Cl)Oc1cc(Cl)c(Cl)cc1O2", "note": "[TCDD, 2,3,7,8-tetrachlorodibenzo-p-dioxin]", "values": [{"measurement": "water uptake", "setting": "C57B1/6J mice [1]; TCDD 6.9 μg/kg alone, 10 days", "result": "4.23 ± 0.52"}, {"measurement": "water uptake", "setting": "C57B1/6J mice [1]; TCDD 6.9 μg/kg alone, 20 days", "result": "4.08 ± 0.72"}, {"measurement": "water uptake", "setting": "C57B1/6J mice [1]; TCDD 6.9 μg/kg alone, 30 days", "result": "4.70 ± 0.42"}, {"measurement": "water uptake", "setting": "C57B1/6J mice [1]; TCDD 6.9 μg/kg alone, 40 days", "result": "4.30 ± 0.42"}, {"measurement": "water uptake", "setting": "C57B1/6J mice [1]; TCDD 6.9 μg/kg alone, 50 days", "result": "4.72 ± 0.39"}, {"measurement": "water uptake", "setting": "C57B1/6J mice [1]; TCDD 6.9 μg/kg alone, 60 days", "result": "4.88 ± 0.17"}, {"measurement": "water uptake", "setting": "C57B1/6J mice [1]; TCDD 27.5 μg/kg alone, 10 days", "result": "3.38 ± 0.75"}, {"measurement": "water uptake", "setting": "C57B1/6J mice [1]; TCDD 27.5 μg/kg alone, 20 days", "result": "3.58 ± 0.14"}, {"measurement": "water uptake", "setting": "C57B1/6J mice [1]; TCDD 27.5 μg/kg alone, 30 days", "result": "3.10 ± 0.14"}, {"measurement": "water uptake", "setting": "C57B1/6J mice [1]; TCDD 27.5 μg/kg alone, 40 days", "result": "3.10 ± 0.14"}, {"measurement": "water uptake", "setting": "C57B1/6J mice [1]; TCDD 27.5 μg/kg alone, 50 days", "result": "2.89 ± 0.63"}, {"measurement": "water uptake", "setting": "C57B1/6J mice [1]; TCDD 27.5 μg/kg alone, 60 days", "result": "3.19 ± 0.21"}, {"measurement": "water uptake", "setting": "C57B1/6J mice [1]; TCDD 110.0 μg/kg alone, 10 days", "result": "3.27 ± 0.78"}, {"measurement": "water uptake", "setting": "C57B1/6J mice [1]; TCDD 110.0 μg/kg alone, 20 days", "result": "4.00 ± 0.66"}, {"measurement": "water uptake", "setting": "C57B1/6J mice [1]; TCDD 110.0 μg/kg alone, 30 days", "result": "4.70 ± 0.42"}, {"measurement": "body weight", "setting": "C57B1/6J mice [2]; TCDD 6.9 μg/kg alone, 0 day", "result": "20.22 ± 0.31"}, {"measurement": "body weight", "setting": "C57B1/6J mice [2]; TCDD 6.9 μg/kg alone, 12 days", "result": "22.27 ± 0.37"}, {"measurement": "body weight", "setting": "C57B1/6J mice [2]; TCDD 6.9 μg/kg alone, 22 days", "result": "23.68 ± 0.36"}, {"measurement": "body weight", "setting": "C57B1/6J mice [2]; TCDD 6.9 μg/kg alone, 32 days", "result": "24.37 ± 0.48"}, {"measurement": "body weight", "setting": "C57B1/6J mice [2]; TCDD 6.9 μg/kg alone, 39 days", "result": "25.35 ± 0.66"}, {"measurement": "body weight", "setting": "C57B1/6J mice [2]; TCDD 6.9 μg/kg alone, 50 days", "result": "27.03 ± 1.35"}, {"measurement": "body weight", "setting": "C57B1/6J mice [2]; TCDD 6.9 μg/kg alone, 59 days", "result": "25.98 ± 1.44"}, {"measurement": "Weight (body weight)", "setting": "C57B1/6J mice [2]; TCDD 6.9 μg/kg alone", "result": "22.96 ± 3.97", "unit": "g"}, {"measurement": "body weight", "setting": "C57B1/6J mice [2]; TCDD 27.5 μg/kg alone, 0 day", "result": "19.54 ± 0.22"}, {"measurement": "body weight", "setting": "C57B1/6J mice [2]; TCDD 27.5 μg/kg alone, 12 days", "result": "20.91 ± 0.52"}, {"measurement": "body weight", "setting": "C57B1/6J mice [2]; TCDD 27.5 μg/kg alone, 22 days", "result": "19.82 ± 1.14"}, {"measurement": "body weight", "setting": "C57B1/6J mice [2]; TCDD 27.5 μg/kg alone, 32 days", "result": "18.54 ± 1.16"}, {"measurement": "body weight", "setting": "C57B1/6J mice [2]; TCDD 27.5 μg/kg alone, 39 days", "result": "17.80 ± 1.40"}, {"measurement": "body weight", "setting": "C57B1/6J mice [2]; TCDD 27.5 μg/kg alone, 50 days", "result": "16.74 ± 1.22"}, {"measurement": "body weight", "setting": "C57B1/6J mice [2]; TCDD 27.5 μg/kg alone, 59 days", "result": "15.72 ± 1.17"}, {"measurement": "Weight (body weight)", "setting": "C57B1/6J mice [2]; TCDD 27.5 μg/kg alone", "result": "16.18 ± 2.51", "unit": "g"}, {"measurement": "body weight", "setting": "C57B1/6J mice [2]; TCDD 110.0 μg/kg alone, 0 day", "result": "19.36 ± 0.31"}, {"measurement": "body weight", "setting": "C57B1/6J mice [2]; TCDD 110.0 μg/kg alone, 12 days", "result": "19.96 ± 0.32"}, {"measurement": "body weight", "setting": "C57B1/6J mice [2]; TCDD 110.0 μg/kg alone, 22 days", "result": "20.02 ± 0.47"}, {"measurement": "body weight", "setting": "C57B1/6J mice [2]; TCDD 110.0 μg/kg alone, 32 days", "result": "19.84 ± 0.55"}, {"measurement": "body weight", "setting": "C57B1/6J mice [2]; TCDD 110.0 μg/kg alone, 39 days", "result": "17.62 ± 1.14"}, {"measurement": "Death rate", "setting": "C57B1/6J mice [3]; TCDD 6.9 μg/kg alone", "result": 0, "unit": "%"}, {"measurement": "No. of dead mice/No. of administered mice", "setting": "C57B1/6J mice [3]; TCDD 6.9 μg/kg alone", "result": "0/10"}, {"measurement": "Death rate", "setting": "C57B1/6J mice [3]; TCDD 27.5 μg/kg alone", "result": 30, "unit": "%"}, {"measurement": "Death time (Mean ± SD)", "setting": "C57B1/6J mice [3]; TCDD 27.5 μg/kg alone", "result": "55 ± 5", "unit": "days"}, {"measurement": "No. of dead mice/No. of administered mice", "setting": "C57B1/6J mice [3]; TCDD 27.5 μg/kg alone", "result": "3/10"}, {"measurement": "Death time (Mean ± SD)", "setting": "C57B1/6J mice [3]; TCDD 110.0 μg/kg alone", "result": "35 ± 7", "unit": "days"}, {"measurement": "No. of dead mice/No. of administered mice", "setting": "C57B1/6J mice [3]; TCDD 110.0 μg/kg alone", "result": "10/10"}]}]}
